Structures can show the parent of a compound that is named as a salt.
Columns and labels:
Solubility (qualitative) = assay type: physicochemical; details: for solubility in sodium hydroxide / alkaline solutions: aqueous sodium hydroxide or alkaline solutions; for solubility in hydrochloric acid: (diluted) hydrochloric acid
[1] = pH of the aqueous solution; assay type: physicochemical; details: dissolved in the previously-calculated amount of sodium hydroxide
male mice (strain CD) = test: Acute toxicity (LD50, Litchfield and Wilcoxon); assay type: in vivo; details: intraperitoneal, 8 days survey
Source text: The acute toxicity of these compounds has been determined on batches of male mice (strain CD) weighing about 20 g. They received the compounds to be tested at increasing doses either intraperitoneally or orally.
The animals are kept under survey for eight days. The deaths when present are numbered.
The average lethal dosage is graphically calculated according to the method of Litchfield and Wilcoxon.

| Compound | solubility in sodium hydroxide / alkaline solutions (Solubility (qualitative)) | other results |
| --- | --- | --- |
| CCC(OC(c1ccc(N2CCCCC2)cc1)C(F)(F)F)C(=O)O (racemic) [Example XIV hydrochloride, dl-2-[1-(4-piperidinophenyl)-2-trifluoroethoxy]butyric acid] | – | solubility in water (Solubility (qualitative)): freely soluble in water |
| CCC(OC(c1ccc(N2CCOCC2)cc1)C(F)(F)F)C(=O)O (racemic) [Example XV hydrochloride, dl-2-[1-(4-morpholinophenyl)-2-trifluoroethoxy]butyric acid] | – | solubility in water (Solubility (qualitative)): soluble in water |
| CC(OC(c1ccccc1)C(F)(F)F)C(=O)O (racemic) [IV, dl-α-(2,2,2-trifluoro-1-phenylethoxy)propionic acid] | dissolves in the stoichiometric amount of sodium hydroxide | – |
| CCC(OC(c1ccc(Oc2ccc(Cl)cc2)cc1)C(F)(F)F)C(=O)O (racemic) [XII, dl-2-[1-(4-chlorophenoxyphenyl)-2,2,2-trifluoroethoxy]butyric acid] | soluble in dilute sodium hydroxide solutions | – |
| O=C(O)C(OC(c1ccccc1)C(F)(F)F)c1ccccc1 (racemic) [XVII, dl-2-(1-phenyl-2-trifluoroethoxy)phenyl acetic acid] | soluble in the dilute solutions of sodium hydroxide | – |
| CCC(OC(c1cccs1)C(F)(F)F)C(=O)O (racemic) [XVIII, dl-2-[1-(thienyl-2)-2,2,2-trifluoroethoxy]butyric acid] | soluble in dilute solutions of sodium hydroxide | – |
| CCC(OC(c1cccc2ccccc12)C(F)(F)F)C(=O)O (racemic) [XXI, Dl-2-[(naphtyl-1)-2,2,2-trifluoroethoxy]butyric acid] | soluble in the previously-calculated amount of sodium hydroxide | pH value of the aqueous solution [1]: 7-8 |
| CCC(OC(c1ccc2ccccc2c1)C(F)(F)F)C(=O)O (racemic) [XXII, dl-2-[1-(naphtyl-2)-2,2,2-trifluoroethoxy]butyric acid] | soluble in the previously-calculated amount of sodium hydroxide | – |
| CCC(OC(c1ccc(N2CCCCCC2)cc1)C(F)(F)F)C(=O)O (racemic) [XXIV, dl-2-[[4-(1-hexamethyleneimino)phenyl]-2,2,2-trifluoroethoxy] butyric acid] | soluble in the dilute aqueous solutions of sodium hydroxide | solubility in hydrochloric acid (Solubility (qualitative)): insoluble in diluted hydrochloric acid |
| CCC(OC(c1ccc(N2CCCCCCC2)cc1)C(F)(F)F)C(=O)O (racemic) [XXV, dl-2-[[4-(heptamethyleneimino-1)phenyl-2,2,2-trifluoroethoxy)] butyric acid] | soluble in the aqueous solutions of sodium hydroxide | solubility in hydrochloric acid (Solubility (qualitative)): insoluble in hydrochloric acid |
| CCC(OC(c1ccc(Cl)cc1)C(F)(F)F)C(=O)O (single isomer, unassigned) [Example IX (acid, isomer β), α-[2,2,2-trifluoro-1-(p-chlorophenylethoxy]butyric acid (isomer β)] | soluble in the previously-calculated amount of sodium hydroxide | – |
| CCC(OC(c1ccccc1)C(F)(F)F)C(=O)O (stereo not drawn) [Example II, α-(2,2,2-trifluoro-1-phenyl-1-ethoxy)butyric acid] | soluble in the previously-calculated amount of sodium hydroxide in aqueous solution | – |
| CCC(OC(c1ccc(Cl)cc1)C(F)(F)F)C(=O)O (stereo not drawn) [Example V (1), α-[2,2,2-trifluoro-1-(4-chlorophenyl)ethoxy]butyric acid] | soluble in an aqueous solution of sodium hydroxide | – |
| CCC(OC(c1ccc(OC)cc1)C(F)(F)F)C(=O)O (stereo not drawn) [Example V (4-methoxyphenyl), α-[2,2,2-trifluoro-1-(4-methoxyphenyl)ethoxy]butyric acid] | soluble in alkaline solutions | solubility in water (Solubility (qualitative)): insoluble in water |
| CCC(OC(c1ccccc1)C(F)(F)F)C(=O)NO (stereo not drawn) [Example VI, α-(2,2,2-trifluoro-1-phenylethoxy)butyryl hydroxamic acid] | soluble in the previously-calculated amount of sodium hydroxide | – |
| CCC(OC(c1ccccc1)C(F)(F)F)C(=O)N1CCOCC1 (stereo not drawn) [Example VII, 4-[α-(2,2,2-trifluoro-1-phenylethoxy)butyryl]morpholine] | – | solubility in common organic solvents (Solubility (qualitative); common organic solvents): soluble in the common organic solvents; solubility in water (Solubility (qualitative)): insoluble in water |
| CCC(OC(c1ccccc1)C(F)(F)F)C(=O)N1CCCCC1 (stereo not drawn) [VIII, 1-[α-(2,2,2-trifluoro-1-phenylethoxy)butyryl]piperidine] | – | solubility in water (Solubility (qualitative)): insoluble in water |
| dl-2-[1-(p-chlorophenylethoxy)-2,2,2-trifluoroethoxy] butyric acid | – | mean lethal dose (LD50) (male mice (strain CD)): about 400 mg/kg |
